What was measured:
[1] = target: WDR5 (Homo sapiens, UniProt P61964); experiment: WDR5 HTRF binding assay; details: read-out: (a) WDR5 HTRF Pep Val v.1[Inhibitor/IC50]Qualified AC50
Protocol: The compounds were serially diluted 3-fold in DMSO to obtain a total of twelve concentrations. Then the test compounds at each concentration (90 nL of each) were transferred by Mosquito in the white Proxiplate plus 384-well microplate (Perkin Elmer). The assay mixture (typical 9 μL) containing 6 nM WDR5 and 20 nM Biotin-MLL1 WIN peptide (3762-3773) in the assay buffer (25 mM Hepes, pH7.5, 0.05% Tween 20, 2 mM DTT, 100 mM NaCl, 0.1% BSA) were added to the wells. For counter assay, a 9 μL solution of 15 nM Biotin-PEG-His peptide was added into the wells. After 20 min incubation at rt, a 3 μL detection solution containing 14 μg/ml Phycolink Streptavidin Allophycocyanin (Prozyme), 2 nM Anti-His-Eu (PerkinElmer) in assay buffer was then added. After 1 hr incubation, the plate was read in the EnVision reader (PerkinElmer) using the HTRF protocol (The protocol set-up: Lance/Delfia dual enhancer mirror, excitation at 320 UV2 (TRF), emission at APC665, 2nd emission at EuropiμM 615). HTRF signals were normalized based on the reading coming from the positive (maximum signal control) and negative controls (minimum signal control) to give percentage of activities left. The data were then fit to a dose response equation using the program Helios (Novartis) to get the IC50 values. Helios is a Novartis in-house assay data analysis software using the methods described by Normolle, D. P., Statistics in Medicine, 12:2025-2042 (1993); Formenko, I. et al., Computer Methods and programs in Biomedicine, 82, 31-37 (2006); Sebaugh, J. L., Pharmaceutical Statistics, 10:128-134 (2011); Kelly, C. et al., Biometrics, 46(4):1071-1085 (1990); and Kahm, M, et al., Journal of Statistical Software, 33(7):(2010) (grofit: Fitting Biological Growth Curves with R, pages 1-21, available at http://www.jstatsoft.org/).

[2] = tested on: MV4-11 cells; experiment: MV4-11 6-day cell growth CTG (CellTiter-Glo) assay; format: cell-based; details: Homo sapiens, MV4-11, 144 h, 6 days, read-out: (c) MLL/WDR5 cell proliferation assay//MLL/WDR5 proliferation MV4:11 Qualified AC50
Protocol: MV4-11 6-Day Cell Growth CTG (CellTiter-Glo) Assay
Acute myeloid leukemia cell MV4-11 (ATCC® CRL-9591™) was cultured with RPMI 1640 medium (Thermo Fisher Scientific, cat #11875) supplemented with 10% FBS (Thermo Fisher Scientific, cat #10099141) in humidified incubator at 37° C., 5% CO2. To assess the effect of WDR5 inhibitor on cell growth, the compound of the present invention was dissolved in DMSO and serially diluted at 1:3 for 12 points starting from 10 mM then 200 nL for the replicate of each dose per well was dispensed to Viewplate-384 Black (Perkin Elmer). Exponentially growing MV4-11 cells were seeded at the density of 300 cells per well in 40 μL to the plate, so the final compound working concentration starts from 50 μM. After 6 days, 40 μL CellTiter-Glo (Promega, cat #G7573) was added into the cell culture well and luminescence was read with Envision (Perkin Elmer) to determine the viable cells. The percentage inhibition was calculated against the samples treated with DMSO only and the data were used for dose response curve fitting in GraphPad Prism to get the IC50 of representative compound of present invention, which reflects the inhibition of WDR5 activity in the proliferation of MV4;11.

[3] = target: wild type MLL1 four-member complex (MLL1-4C) (Homo sapiens, UniProt P61964); experiment: MLL1 LC-MS assay (SAH production); format: biochemical; details: read-out: (b) MLL LCMS Peptide Val.v.1 Qualified AC50
Protocol: The compounds of the present disclosure were serially and separately diluted 3-fold in DMSO to obtain a total of eight or twelve concentrations. Then the test compounds at each concentration (120 nL of each) were transferred by Mosquito into white Proxiplate plus 384-well microplate (PerkinElmer). Solutions (6 μL) of 60 nM wild type MLL1 four-member complex (MLL1-4C) and 5 μM SAM in the reaction buffer (20 mM Tris-HCl, pH8.0, 0.01% Tween 20, 1 mM DTT, 10 mM MgCl2, 0.01% BSA) were added to the wells that were then incubated with the test compound for 20 min. A 6 μL solution of 20 μM of the peptide substrate H3K4me0 (histone H3[1-21]-Biotin) in the reaction buffer was added to initiate each reaction. The final components in the reaction solution include 30 nM MLL1-4C, 2.5 μM SAM, and 10 μM H3K4me0 with varying concentration of the compounds. A positive control consisted of 30 nM MLL1-4C, 2.5 μM SAM, and 10 μM substrate in the absence of the test compound, and a negative control consisted of 2.5 μM SAM, and 10 μM substrate only. Each reaction was incubated at rt for 120 min, then stopped by addition of 3 μL per of quench solution (2.5% TFA with 320 nM d4-SAH). The reaction mixture was centrifuged (Eppendorf centrifuge 5810, Rotor A-4-62) for 2 min at 2000 rmp. The SAH production from the enzymatic assays were monitored by LC-MS/MS on an API 4000 triple quadrupole mass spec with Turbolon Spray (Applied Biosystem) coupled with Prominenece UFLC (Shimazu). The level of SAH production were then normalized based on the values coming from the positive and negative controls to give percent enzyme activities. The data were then fit to a dose response equation using the program Helios (Novartis) to get the IC50 values of the test compound. Helios is a Novartis in-house assay data analysis software using the methods described by Normolle, D. P., Statistics in Medicine, 12:2025-2042 (1993); Formenko, I. et al., Computer Methods and programs in Biomedicine, 82, 31-37 (2006); Sebaugh, J. L., Pharmaceutical Statistics, 10:128-134 (2011); Kelly, C. et al., Biometrics, 46(4):1071-1085 (1990); and Kahm, M, et al., Journal of Statistical Software, 33(7):(2010) (grofit: Fitting Biological Growth Curves with R, pages 1-21, available at http://www.jstatsoft.org/).

Row | IC50 [1] | AC50 [3] | Compound | AC50 [2]
1 | < 0.01 µM | 0.01 to 1 µM | CCOc1cc([C@H](C)N2CCc3c(cc(Cn4ccnc4C)cc3-c3cn(C)nc3C)C2=O)ncc1C(N)=O (single isomer, unassigned) [Example 268] | 0.01 to 1 µM
2 | < 0.01 µM | 0.01 to 1 µM | CCOc1cc([C@H](C)N2CCc3c(cc(Cn4ccnc4C)cc3-c3cc(CN(C)C)nn3C)C2=O)ncc1C#N (single isomer, unassigned) [Example 270] | 0.01 to 1 µM
3 | < 0.01 µM | 0.01 to 1 µM | CCOc1cc([C@H](C)N2CCc3c(cc(Cn4ccnc4C)cc3-c3cn(C)c(=O)cc3C(F)(F)F)C2=O)ncc1F (single isomer, unassigned) [Example 278] | < 0.01 µM
4 | < 0.01 µM | < 0.01 µM | CCOc1cc([C@H](C)N2CCc3c(cc(Cn4ccnc4C)cc3-c3cn(C)nc3C)C2=O)nnc1C#N (single isomer, unassigned) [Example 303] | < 0.01 µM
5 | 0.01 to 1 µM | 0.01 to 1 µM | CCOc1cc([C@H](C)N2CCc3c(CN4CC[C@@H](F)C4)cc(Cn4ccnc4NC)cc3C2=O)ncc1F [Example 14, 2-((S)-1-(4-ethoxy-5-fluoropyridin-2-yl)ethyl)-5-(((R)-3-fluoropyrrolidin-1-yl)methyl)-7-((2-(methylamino)-1H-imidazol-1-yl)methyl)-3,4-dihydroisoquinolin-1(2H)-one] | 0.01 to 1 µM

More lines, now with the values behind:

Row | Compound | IC50 [1] | AC50 [3] | AC50 [2]
6 | CCOc1cc(C(C)N2CCc3c(Br)cc(Cn4ccnc4NC)cc3C2=O)ncc1C#N (stereo not drawn) [Example 1, 6-(1-(5-bromo-7-((2-(methylamino)-1H-imidazol-1-yl)methyl)-1-oxo-3,4 dihydroisoquinolin-2(1H)-yl)ethyl)-4-ethoxynicotinonitrile] | 0.01 to 1 µM | 0.01 to 1 µM | 0.01 to 1 µM
7 | CCOc1cc(CN2CCc3c(Br)cc(Cn4ccnc4NC)cc3C2=O)cnc1C#N [Example 2, 5-((5-bromo-7-((2-(methylamino)-1H-imidazol-1-yl)methyl)-1-oxo-3,4-dihydroisoquinolin-2(1H)-yl)methyl)-3-ethoxypicolinonitrile] | 0.01 to 1 µM | 0.01 to 1 µM | 0.01 to 1 µM
8 | CCOc1cc([C@H](C)N2CCc3c(Cl)cc(Cn4ccnc4NC)cc3C2=O)cnc1C#N [Example 4, (S)-5-(1-(5-chloro-7-((2-(methylamino)-1H-imidazol-1-yl)methyl)-1-oxo-3,4-dihydroisoquinolin-2(1H)-yl)ethyl)-3-ethoxypicolinonitrile] | 0.01 to 1 µM | 0.01 to 1 µM | 0.01 to 1 µM
9 | CCOc1cc([C@H](C)N2CCc3c(Cl)cc(Cn4ccnc4NC)cc3C2=O)ncc1F [Example 5, (S)-5-chloro-2-(1-(4-ethoxy-5-fluoropyridin-2-yl)ethyl)-7-((2-(methylamino)-1H-imidazol-1-yl)methyl)-3,4-dihydroisoquinolin-1(2H)-one] | 0.01 to 1 µM | 0.01 to 1 µM | 0.01 to 1 µM
10 | CCOc1cc(CN2CCc3c(Cl)cc(Cn4ccnc4NC)cc3C2=O)cnc1C#N [Example 6, 5-((5-chloro-7-((2-(methylamino)-1H-imidazol-1-yl)methyl)-1-oxo-3,4-dihydroisoquinolin-2(1H)-yl)methyl)-3-ethoxypicolinonitrile] | 0.01 to 1 µM | 0.01 to 1 µM | 0.01 to 1 µM
11 | CNc1nccn1Cc1cc(CN2CCOCC2)c2c(c1)C(=O)N([C@@H](C)c1cnc(F)c(OC)c1)CC2 [Example 8, (S)-2-(1-(6-fluoro-5-methoxypyridin-3-yl)ethyl)-7-((2-(methylamino)-1H-imidazol-1-yl)methyl)-5-(morpholinomethyl)-3,4-dihydroisoquinolin-1(2H)-one] | < 0.01 µM | 0.01 to 1 µM | 0.01 to 1 µM
12 | CCOc1cc([C@H](C)N2CCc3c(CN4CC[C@H](F)C4)cc(Cn4ccnc4NC)cc3C2=O)ncc1C#N [Example 9, 4-ethoxy-6-((S)-1-(5-(((S)-3-fluoropyrrolidin-1-yl)methyl)-7-((2-(methylamino)-1H-imidazol-1-yl)methyl)-1-oxo-3,4-dihydroisoquinolin-2(1H)-yl)ethyl)nicotinonitrile] | < 0.01 µM | 0.01 to 1 µM | 0.01 to 1 µM
13 | CCOc1cc([C@H](C)N2CCc3c(CN(C)C4COC4)cc(Cn4ccnc4NC)cc3C2=O)ncc1F [Example 10, (S)-2-(1-(4-ethoxy-5-fluoropyridin-2-yl)ethyl)-5-((methyl(oxetan-3-yl)amino)methyl)-7-((2-(methylamino)-1H-imidazol-1-yl)methyl)-3,4-dihydroisoquinolin-1(2H)-one] | < 0.01 µM | 0.01 to 1 µM | 0.01 to 1 µM
14 | CCOc1cc([C@H](C)N2CCc3c(CN4CC[C@@H](F)C4)cc(Cn4ccnc4NC)cc3C2=O)ncc1C#N [Example 11, 4-ethoxy-6-((S)-1-(5-(((R)-3-fluoropyrrolidin-1-yl)methyl)-7-((2-(methylamino)-1H-imidazol-1-yl)methyl)-1-oxo-3,4-dihydroisoquinolin-2(1H)-yl)ethyl)nicotinonitrile] | < 0.01 µM | 0.01 to 1 µM | 0.01 to 1 µM
15 | CCOc1cc([C@H](C)N2CCc3c(CN4CCOCC4)cc(Cn4ccnc4NC)cc3C2=O)ncc1C#N [Example 12, (S)-4-ethoxy-6-(1-(7-((2-(methylamino)-1H-imidazol-1-yl)methyl)-5-(morpholinomethyl)-1-oxo-3,4-dihydroisoquinolin-2(1H)-yl)ethyl)nicotinonitrile] | 0.01 to 1 µM | 0.01 to 1 µM | 0.01 to 1 µM
16 | CNc1nccn1Cc1cc(CN(C)C2COC2)c2c(c1)C(=O)N([C@@H](C)c1cc(OC)c(F)cn1)CC2 [Example 13] | 0.01 to 1 µM | 0.01 to 1 µM | 0.01 to 1 µM
